{"source": "patent US20230293629A1", "about": "“METHODS FOR ATTENUATING RELEASE OF INFLAMMATORY MEDIATORS AND PEPTIDES USEFUL THEREIN” (BIOMARCK PHARMACEUTICALS LTD., priority 2006, published 2023)", "system": "LPS-induced lung inflammation", "assay": "In vivo LPS-induced lung inflammation, BAL analysis", "set-up": "species or system mice", "settings": "for Hb / MPO / LDH / Total Protein: BAL fluid; for Inhibition of neutrophil migration: relative to PBS/LPS treatment", "method": "This example was performed essentially according to methods described by Cox, G, Crossley, J., and Xing, Z.; Macrophage engulfment of apoptotic neutrophils contributes to the resolution of acute pulmonary inflammation in vivo; Am. J. Respir. Cell Mol. Biol. 12:232-237, 1995; Hirano S., Quantitative time-course profiles of bronchoalveolar lavage cells following intratracheal instillation of lipopolysaccharide in mice, Ind. Health 35:353-358, 1997; and Ulich T R, Watson L R, Yin S M, Guo K Z, Wang P, Thang H, and del Castillo, J. Am. J. Pathol. 138:1485-1496, 1991.\nThus, six to seven week old CD1 female mice weighing 15-20 grams were obtained from Charles River laboratories and housed in groups of 5 mice per cage. The animals received standard rodent diet and filtered water ad libitum. The animals were housed under NIH prescribed guidelines at standard temperature (64° to 79° F.) and relative humidity of 30 to 70%.\nFive treatment groups of mice, with 5 animals in each group, were treated either with PBS followed by PBS, with PBS followed by LPS, with (myristoylated) MANS peptide followed by LPS, with acetylated peptide of SEQ ID NO: 1, followed by LPS, or with acetylated peptide of SEQ ID NO: 106, followed by LPS.\nIntranasal peptide instillation pre-treatment: A peptide of the invention to be evaluated in vivo for its ability to inhibit or reduce LPS-induced lung inflammation was dissolved in PBS at a concentration of 1 mM. Animals, anesthetized with 0.8% isofluorane by inhalation, were pretreated with 2×10 μL intranasal bolus of the peptide solution into one nostril 30 minutes prior to subsequent instillation with LPS.\nIntranasal LPS instillation: Lipopolysaccharide (LPS) Endotoxin (Escherichia coli Serotype 011:B4 derived endotoxin; Sigma, St Louis, MO; see Sigma product information sheet L4130 titled Lipopolysaccharides from Escherichia coli 011:B4) was dissolved into phosphate buffered saline (PBS) at 2,500 μg/mL. To expose animals to endotoxin, a 10 μL intranasal bolus of 2,500 μg/ml endotoxin solution was administered to animals which had been anesthetized with 0.8% isofluorane by inhalation. The 10 μL bolus was applied into one nostril. Animals were monitored for labored breathing, lethargy, and decreased water/food intake following the endotoxin instillations.\nBronchoalveolar Lavage (BAL): Six hours after the last instillation, the animals were anesthetized (90 mg/kg Nembutal) and sacrificed by exsanguination. The lung was serially lavaged 2 times with 1.0 mL aliquots of PBS. The collected BAL fluid was centrifuged to remove the cells for subsequent counting and differential analysis. Recovered lavage fluid was used for analysis of total protein, myeloperoxidase (MPO), LDH, and hemoglobin.\nAnalysis: Aliquots of the BAL fluid were used immediately to assay for the levels of LDH, total protein, or hemoglobin using the COBAS Fara analyzer (COBAS FARA II automated analyzer; Roche Diagnostic Systems Inc., Montclair, NJ). An aliquot of BAL fluid was frozen at −80° C. for subsequent quantitation of myeloperoxidase (MPO) with a mouse-specific ELISA assay (Cell Sciences, Inc., Canton, Mass). BAL data were analyzed by standard techniques to examine differences between the control and treatment groups.", "note": "Where a SMILES comes first, the peptide text is derived from it. Where no end group is shown, it is not given here. The star is where a group is joined. Myristoyl = CCCCCCCCCCCCCC(=O)*"}
{"compound": "CCCCCCCCCCCCCC(=O)NCC(=O)N[C@@H](C)C(=O)N[C@@H](CCC(N)=O)C(=O)N[C@@H](Cc1ccccc1)C(=O)N[C@@H](CO)C(=O)N[C@@H](CCCCN)C(=O)N[C@H](C(=O)N[C@@H](C)C(=O)N[C@@H](C)C(=O)N[C@@H](CCCCN)C(=O)NCC(=O)N[C@@H](CCC(=O)O)C(=O)N[C@@H](C)C(=O)N[C@@H](C)C(=O)N[C@@H](C)C(=O)N[C@@H](CCC(=O)O)C(=O)N[C@@H](CCCNC(=N)N)C(=O)N1CCC[C@H]1C(=O)NCC(=O)N[C@@H](CCC(=O)O)C(=O)N[C@@H](C)C(=O)N[C@@H](C)C(=O)N[C@H](C(=O)N[C@@H](C)C(=O)O)C(C)C)[C@@H](C)O", "note": "[MANS] (Myristoyl-GAQFSKTAAKGEAAAERPGEAAVA-OH; C-terminus assumed)", "values": [{"measurement": "Total cells counted", "setting": "BAL 6 h after intranasal LPS, 2×10 μL 1 mM peptide intranasal 30 min before LPS, PBS/LPS 264,200, PBS/PBS 157,020", "result": "208,457"}, {"measurement": "Hb", "setting": "Table 4 experiment, PBS/LPS 0.19, PBS/PBS 0.00", "result": 0.05, "unit": "g/dL"}, {"measurement": "MPO", "setting": "Table 4 experiment, PBS/LPS 28.98, PBS/PBS 3.28", "result": 9.49, "unit": "ng/mL"}, {"measurement": "LDH", "setting": "Table 4 experiment, PBS/LPS 60.40, PBS/PBS 68.20", "result": 68.57, "unit": "units/L"}, {"measurement": "Total Protein", "setting": "Table 4 experiment, PBS/LPS 272.40, PBS/PBS 125.60", "result": 175.00, "unit": "µg/mL"}, {"measurement": "% Neutrophils of total cells", "setting": "Table 4 experiment, PBS/LPS 41.7, PBS/PBS 18.7", "result": 30.9, "unit": "%"}, {"measurement": "Total neutrophils counted", "setting": "Table 4 experiment, PBS/LPS 110,061, PBS/PBS 29317", "result": "64,481"}, {"measurement": "Inhibition of neutrophil migration", "result": 41.4, "unit": "%"}]}
{"compound": "Ac-GAQFSKTAAK [Ac-GAQFSKTAAK]", "values": [{"measurement": "Hb", "setting": "Table 6 experiment, PBS/LPS 0.00, PBS/PBS 0.00", "result": 0.00, "unit": "g/dL"}, {"measurement": "MPO", "setting": "Table 6 experiment, PBS/LPS 7.19, PBS/PBS 4.88", "result": 1.50, "unit": "ng/mL"}, {"measurement": "LDH", "setting": "Table 6 experiment, PBS/LPS 78.20, PBS/PBS 61.80", "result": 106.86, "unit": "units/L"}, {"measurement": "Total Protein", "setting": "Table 6 experiment, PBS/LPS 116.4, PBS/PBS 113.8", "result": 131.0, "unit": "µg/mL"}, {"measurement": "% Neutrophils of total counts", "setting": "Table 6 experiment, PBS/LPS 24.4, PBS/PBS 21.3", "result": 3.0, "unit": "%"}, {"measurement": "Total Neutrophil counts", "setting": "Table 6 experiment, PBS/LPS 80,077, PBS/PBS 66,521", "result": "9,170"}, {"measurement": "Total Cell Counts", "setting": "Table 6 experiment, PBS/LPS 327,680, PBS/PBS 312,620", "result": "305,688"}, {"measurement": "Inhibition of neutrophil migration", "result": 88.5, "unit": "%"}]}
{"compound": "Ac-GAQFSKTAAKGEAAAERPGEAAVA", "values": [{"measurement": "Hb", "setting": "Table 5 experiment, PBS/LPS 0.01, PBS/PBS 0.00", "result": 0.01, "unit": "g/dL"}, {"measurement": "MPO", "setting": "Table 5 experiment, PBS/LPS 37.90, PBS/PBS 5.45", "result": 30.79, "unit": "ng/mL"}, {"measurement": "LDH", "setting": "Table 5 experiment, PBS/LPS 89.9, PBS/PBS 84.0", "result": 74.5, "unit": "units/L"}, {"measurement": "Total Protein", "setting": "Table 5 experiment, PBS/LPS 153.4, PBS/PBS 230.6", "result": 182.75, "unit": "µg/mL"}, {"measurement": "% Neutrophils of total counts", "setting": "Table 5 experiment, PBS/LPS 65.5, PBS/PBS 22.1", "result": 41.47, "unit": "%"}, {"measurement": "Total Neutrophil counts", "setting": "Table 5 experiment, PBS/LPS 164,578, PBS/PBS 19,770", "result": "105,499"}, {"measurement": "Total Cell Counts", "setting": "Table 5 experiment, PBS/LPS 251,360, PBS/PBS 89,440", "result": "254,400"}, {"measurement": "Inhibition of neutrophil migration", "result": 35.9, "unit": "%"}]}
